{"source": "paper PMC11274883", "about": "“Anticancer Effect of Pt^[sequence], Pt^II5MESS, Pt^II56MESS and Their Platinum(IV)-Dihydroxy Derivatives against Triple-Negative Breast Cancer and Cisplatin-Resistant Colorectal Cancer” (Cancers, 2024)", "assay_type_in_all_cases": "cell-based", "key": {"HT29 cells [1]": {"test_system": "HT29 cells", "experiment": "DCFDA cellular ROS detection assay", "conditions": "complexes at IC50, TBHP 20 µM", "in_short": "(§1)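 Cells seeded at 2500 cells/well overnight, then loaded with 25 µM DCFH-DA for 45 min. DCF fluorescence (ex/em 485/535 nm, RFU) read at multiple time points; 20 µM TBHP served as positive control. Three independent experiments in triplicate.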"}, "MDA−MB−231 cells [2]": {"test_system": "MDA−MB−231 cells", "experiment": "DCFDA cellular ROS detection assay", "conditions": "complexes at IC50, TBHP 20 µM", "in_short": "as §1"}, "HT29 cells [3]": {"test_system": "HT29 cells", "experiment": "TMRE mitochondrial membrane potential assay", "conditions": "complexes at IC50, FCCP 20 µM", "in_short": "(§2)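 Cells treated with each complex at its IC50 concentration for 24, 48 or 72 h, then stained with 1 µM TMRE for 30 min and washed before fluorescence scanning. Three independent experiments in triplicate.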"}, "MDA−MB−231 cells [4]": {"test_system": "MDA−MB−231 cells", "experiment": "TMRE mitochondrial membrane potential assay", "conditions": "complexes at IC50, FCCP 20 µM", "in_short": "as §2"}, "HT29 cells [5]": {"test_system": "HT29 cells", "experiment": "Western blot protein expression", "conditions": "HT29, IC50, 72 h", "in_short": "(§3)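 Cells were lysed in RIPA buffer with orthovanadate, and 20 µg protein was run on SDS-PAGE, transferred to PVDF and probed for proliferation, apoptosis, microtubule and autophagy markers. ECL band intensities were normalised to GAPDH and then to untreated control. Three independent experiments were run per marker.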"}, "MDA−MB−231 cells [6]": {"test_system": "MDA−MB−231 cells", "experiment": "Western blot protein expression", "conditions": "MDA−MB−231, IC50, 72 h", "in_short": "as §3"}, "[7]": {"conditions": "representative blot Figure S30G"}, "[8]": {"conditions": "representative blot Figure S30H"}}, "data": [{"smiles": "N[C@H]1CCCC[C@@H]1N.O=[N+]([O-])[O-].O=[N+]([O-])[O-].[OH-].[OH-].[Pt+4].c1cnc2c(c1)ccc1cccnc12", "note": "[[Pt(1,10-phenanthroline)(1S,2S-diaminocyclohexane)(dihydroxy)](NO3)2]", "values": [{"measurement": "ROS production", "setting": "HT29 cells [1]; HT29, 24 h", "result": 182.77, "unit": "RFU"}, {"measurement": "ROS production", "setting": "HT29 cells [1]; HT29, 48 h", "result": 217.33, "unit": "RFU"}, {"measurement": "ROS production", "setting": "HT29 cells [1]; HT29, 72 h", "result": 242.44, "unit": "RFU"}, {"measurement": "ROS production", "setting": "MDA−MB−231 cells [2]; MDA−MB−231, 24 h", "result": 196.62, "unit": "RFU"}, {"measurement": "ROS production", "setting": "MDA−MB−231 cells [2]; MDA−MB−231, 48 h", "result": 256.83, "unit": "RFU"}, {"measurement": "ROS production", "setting": "MDA−MB−231 cells [2]; MDA−MB−231, 72 h", "result": 275.09, "unit": "RFU"}, {"measurement": "MtMp (mitochondrial membrane potential)", "setting": "HT29 cells [3]; HT29, 24 h", "result": 312.19, "unit": "RFU"}, {"measurement": "MtMp (mitochondrial membrane potential)", "setting": "HT29 cells [3]; HT29, 48 h", "result": 261.95, "unit": "RFU"}, {"measurement": "MtMp (mitochondrial membrane potential)", "setting": "HT29 cells [3]; HT29, 72 h", "result": 215.58, "unit": "RFU"}, {"measurement": "MtMp (mitochondrial membrane potential)", "setting": "MDA−MB−231 cells [4]; MDA−MB−231, 24 h", "result": 297.56, "unit": "RFU"}, {"measurement": "MtMp (mitochondrial membrane potential)", "setting": "MDA−MB−231 cells [4]; MDA−MB−231, 48 h", "result": 257.95, "unit": "RFU"}, {"measurement": "MtMp (mitochondrial membrane potential)", "setting": "MDA−MB−231 cells [4]; MDA−MB−231, 72 h", "result": 179.38, "unit": "RFU"}, {"measurement": "β-actin/GAPDH normalized to control (1)", "setting": "HT29 cells [5]; representative blot Figure S28A", "result": 0.8943}, {"measurement": "β-tubulin/GAPDH normalized to control (1)", "setting": "HT29 cells [5]; representative blot Figure S28B", "result": 0.8137}, {"measurement": "α-tubulin/GAPDH normalized to control (1)", "setting": "HT29 cells [5]; representative blot Figure S28C", "result": 0.4054}, {"measurement": "p-AKT/AKT/GAPDH normalized to control (1)", "setting": "HT29 cells [5]; representative blot Figure S29A", "result": 1.011}, {"measurement": "p-ERK/ERK/GAPDH normalized to control (1)", "setting": "HT29 cells [5]; representative blot Figure S29B", "result": 1.229}, {"measurement": "p53/GAPDH normalized to control (1)", "setting": "HT29 cells [5]; representative blot Figure S29C", "result": 4.543}, {"measurement": "p21/GAPDH normalized to control (1)", "setting": "HT29 cells [5]; representative blot Figure S29D", "result": 3.293}, {"measurement": "Bax/GAPDH normalized to control (1)", "setting": "HT29 cells [5]; representative blot Figure S30A", "result": 3.388}, {"measurement": "Bcl2/GAPDH normalized to control (1)", "setting": "HT29 cells [5]; representative blot Figure S30B", "result": 1.194}, {"measurement": "Cyt C/GAPDH normalized to control (1)", "setting": "HT29 cells [5]; representative blot Figure S30C", "result": 7.091}, {"measurement": "Procaspase 8/GAPDH normalized to control (1)", "setting": "HT29 cells [5]; representative blot Figure S30D", "result": 0.9474}, {"measurement": "Cleaved BID/GAPDH normalized to control (1)", "setting": "HT29 cells [5]; representative blot Figure S30E", "result": 2.711}, {"measurement": "Procaspase 9/GAPDH normalized to control (1)", "setting": "HT29 cells [5]; representative blot Figure S30F", "result": 0.5927}, {"measurement": "Cleaved caspase 3/GAPDH normalized to control (1)", "setting": "HT29 cells [5]; [7]", "result": 1.017}, {"measurement": "Procaspase 3/GAPDH normalized to control (1)", "setting": "HT29 cells [5]; [7]", "result": 1.141}, {"measurement": "Cleaved PARP-1/GAPDH normalized to control (1)", "setting": "HT29 cells [5]; [8]", "result": 2.239}, {"measurement": "PARP-1/GAPDH normalized to control (1)", "setting": "HT29 cells [5]; [8]", "result": 0.6475}, {"measurement": "Beclin1/GAPDH normalized to control (1)", "setting": "HT29 cells [5]; representative blot Figure S31A", "result": 8.006}, {"measurement": "ATG5/GAPDH normalized to control (1)", "setting": "HT29 cells [5]; representative blot Figure S31B", "result": 0.3102}, {"measurement": "ATG16L1/GAPDH normalized to control (1)", "setting": "HT29 cells [5]; representative blot Figure S31C", "result": 4.093}, {"measurement": "ATG9A/GAPDH normalized to control (1)", "setting": "HT29 cells [5]; representative blot Figure S31D", "result": 1.203}, {"measurement": "ATG4B/GAPDH normalized to control (1)", "setting": "HT29 cells [5]; representative blot Figure S31E", "result": 0.9049}, {"measurement": "LC3B/GAPDH normalized to control (1)", "setting": "HT29 cells [5]; representative blot Figure S31F", "result": 2.232}, {"measurement": "β-actin/GAPDH normalized to control (1)", "setting": "MDA−MB−231 cells [6]; representative blot Figure S24A", "result": 0.835}, {"measurement": "β-tubulin/GAPDH normalized to control (1)", "setting": "MDA−MB−231 cells [6]; representative blot Figure S24B", "result": 0.6552}, {"measurement": "α-tubulin/GAPDH normalized to control (1)", "setting": "MDA−MB−231 cells [6]; representative blot Figure S24C", "result": 0.9279}, {"measurement": "p-AKT/AKT/GAPDH normalized to control (1)", "setting": "MDA−MB−231 cells [6]; representative blot Figure S25A", "result": 1.063}, {"measurement": "p-ERK/ERK/GAPDH normalized to control (1)", "setting": "MDA−MB−231 cells [6]; representative blot Figure S25B", "result": 0.1206}, {"measurement": "p53/GAPDH normalized to control (1)", "setting": "MDA−MB−231 cells [6]; representative blot Figure S25C", "result": 1.176}, {"measurement": "p21/GAPDH normalized to control (1)", "setting": "MDA−MB−231 cells [6]; representative blot Figure S25D", "result": 1.346}, {"measurement": "Bax/GAPDH normalized to control (1)", "setting": "MDA−MB−231 cells [6]; representative blot Figure S26A", "result": 1.398}, {"measurement": "Bcl2/GAPDH normalized to control (1)", "setting": "MDA−MB−231 cells [6]; representative blot Figure S26B", "result": 0.7843}, {"measurement": "Cytochrome C/GAPDH normalized to control (1)", "setting": "MDA−MB−231 cells [6]; representative blot Figure S26C", "result": 2.378}, {"measurement": "Procaspase 8/GAPDH normalized to control (1)", "setting": "MDA−MB−231 cells [6]; representative blot Figure S26D", "result": 0.2888}, {"measurement": "Cleaved BID/GAPDH normalized to control (1)", "setting": "MDA−MB−231 cells [6]; representative blot Figure S26E", "result": 1.33}, {"measurement": "Procaspase 9/GAPDH normalized to control (1)", "setting": "MDA−MB−231 cells [6]; representative blot Figure S26F", "result": 0.2675}, {"measurement": "Procaspase 3/GAPDH normalized to control (1)", "setting": "MDA−MB−231 cells [6]; representative blot Figure S26G", "result": 0.4093}, {"measurement": "PARP-1/GAPDH normalized to control (1)", "setting": "MDA−MB−231 cells [6]; representative blot Figure S26H", "result": 0.5717}, {"measurement": "Beclin1/GAPDH normalized to control (1)", "setting": "MDA−MB−231 cells [6]; representative blot Figure S27A", "result": 1.408}, {"measurement": "ATG5/GAPDH normalized to control (1)", "setting": "MDA−MB−231 cells [6]; representative blot Figure S27B", "result": 1.129}, {"measurement": "ATG16L1/GAPDH normalized to control (1)", "setting": "MDA−MB−231 cells [6]; representative blot Figure S27C", "result": 0.9987}, {"measurement": "ATG9A/GAPDH normalized to control (1)", "setting": "MDA−MB−231 cells [6]; representative blot Figure S27D", "result": 0.774}, {"measurement": "ATG4B/GAPDH normalized to control (1)", "setting": "MDA−MB−231 cells [6]; representative blot Figure S27E", "result": 1.581}, {"measurement": "LC3B/GAPDH normalized to control (1)", "setting": "MDA−MB−231 cells [6]; representative blot Figure S27F", "result": 0.6076}]}]}
